Calls of active or inactive are those of the source.
Legend:
[1] = inhibitors of firefly luciferase expression or activity, dose response, H4 neuroglioma cells, luminescence (AID 1990); type: functional, cell-based
BJ [2] = assay: cytotoxicity toward BJ-TERT fibroblasts, dose response, cell-based, RAS-independent, luminescence (AID 1933); type: functional; settings: Homo sapiens
[3] = Luminescence Cell-Based Dose Response HTS to Identify Inhibitors of 5'UTR Stem-Loop Driven Prion Protein mRNA Translation in H4 Neuroglioblastoma Cells. [Related pubchem assays: 1827 (Project Summary), 1813 (Primary HTS)]; type: functional
[4] = inhibitors of SNCA 5'UTR-driven reporter translation, confirmation, H4 neuroglioma cells, luminescence (AID 1988); type: functional, cell-based
BJ [5] = assay: cells; type: functional, cell-based; settings: Homo sapiens
[6] = growth suppression of PTEN-null colon cells, dose response, cell-based, HCT116 PTEN knockout (AID 1047); type: functional;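 note: HCT116 colon tumor cells with PTEN knocked out; cells exposed to compound for 60 hours before readout; potency for loss of cell viability measured by luminescence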
[7] = growth suppression of beta-catenin-knockout colon cells, dose response, cell-based, HCT116, human colon tumor (AID 1045); type: functional;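 note: HCT116 colon tumor cells with beta catenin knocked out; cells exposed to compound for 60 hours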
BJ [8] = assay: cytotoxicity toward BJ-TERT-LT-ST fibroblasts, dose response, cell-based, RAS-independent, luminescence (AID 1935); type: functional; settings: Homo sapiens;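 note: BJ fibroblasts immortalized with TERT plus LT and ST oncogenes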
[9] = cytotoxicity toward DRD oncogenic fibroblasts, dose response, cell-based, non-viral oncogenic, luminescence (AID 1934); type: functional; settings: Homo sapiens
Aminopeptidase N = target: T1, Aminopeptidase N (Plasmodium falciparum FcB1/Columbia, UniProt O96935); assay: P. falciparum M1AAP inhibitors, biochemical, fluorogenic H-Leu-NHMec substrate, 1536-well (AID 1445); set-up: species or system Plasmodium falciparum 3D7, 3D7
T1 sequence (O96935 whole entry): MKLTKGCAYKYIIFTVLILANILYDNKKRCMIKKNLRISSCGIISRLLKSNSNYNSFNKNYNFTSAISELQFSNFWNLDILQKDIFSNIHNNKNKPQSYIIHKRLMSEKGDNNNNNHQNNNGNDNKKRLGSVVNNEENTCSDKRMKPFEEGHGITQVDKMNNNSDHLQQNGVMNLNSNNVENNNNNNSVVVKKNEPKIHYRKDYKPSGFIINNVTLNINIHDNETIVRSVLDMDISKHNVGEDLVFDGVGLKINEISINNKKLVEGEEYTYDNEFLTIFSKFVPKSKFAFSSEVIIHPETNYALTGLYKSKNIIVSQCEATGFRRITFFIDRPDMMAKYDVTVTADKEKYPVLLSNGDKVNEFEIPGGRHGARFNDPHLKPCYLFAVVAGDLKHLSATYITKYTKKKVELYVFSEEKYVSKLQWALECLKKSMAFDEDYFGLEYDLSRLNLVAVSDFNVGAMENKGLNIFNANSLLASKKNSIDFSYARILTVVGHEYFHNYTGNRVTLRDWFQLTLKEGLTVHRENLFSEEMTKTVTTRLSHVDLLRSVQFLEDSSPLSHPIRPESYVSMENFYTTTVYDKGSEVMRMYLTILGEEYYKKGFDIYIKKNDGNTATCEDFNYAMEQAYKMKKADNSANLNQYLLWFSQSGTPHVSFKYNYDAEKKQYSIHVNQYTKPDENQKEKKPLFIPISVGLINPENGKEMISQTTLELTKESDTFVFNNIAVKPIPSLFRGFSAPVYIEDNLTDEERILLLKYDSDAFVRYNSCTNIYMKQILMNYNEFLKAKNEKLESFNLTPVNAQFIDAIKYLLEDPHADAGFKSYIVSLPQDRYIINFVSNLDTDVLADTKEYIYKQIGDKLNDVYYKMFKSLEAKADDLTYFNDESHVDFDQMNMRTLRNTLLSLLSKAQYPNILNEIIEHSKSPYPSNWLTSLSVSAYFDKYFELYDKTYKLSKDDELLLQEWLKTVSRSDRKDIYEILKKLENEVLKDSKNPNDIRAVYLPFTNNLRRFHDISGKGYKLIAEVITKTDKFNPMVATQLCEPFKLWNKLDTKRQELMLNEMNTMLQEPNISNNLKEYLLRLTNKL

Vero = assay: cells; type: functional; settings: Chlorocebus sabaeus
[10] = Shn3 3'UTR reporter inhibitors, dose response, cell-based, Clone20 osteoblasts, firefly luciferase, cherry-picked (AID 624132); type: functional;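 note: firefly luciferase luminescence from reporter carrying the Shn3 3'UTR in osteoblasts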
[11] = HepG2 cell cytotoxicity, dose response, cytotoxicity control for Shn3 inhibitor project, CellTiter-Glo, cherry-picked (AID 624134); type: functional, cell-based
[12] = control 3'UTR Renilla luciferase suppression, dose response, counter-screen for Shn3 inhibitor project, cell-based, Clone20-Shn3RL, cherry-picked (AID 624133); type: functional
Paired box protein Pax-8 = Paired box protein Pax-8 (Homo sapiens, UniProt Q06710); assay: inhibitors of PAX8-driven TPO luciferase reporter, dose response, RMG-I cells, cherry-pick (AID 687027); type: functional, cell-based;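 note: luciferase reporter driven by Pax8 target thyroperoxidase promoter measured by SteadyGlo luminescence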
Chain of Paired box protein Pax-8 (Q06710 whole entry): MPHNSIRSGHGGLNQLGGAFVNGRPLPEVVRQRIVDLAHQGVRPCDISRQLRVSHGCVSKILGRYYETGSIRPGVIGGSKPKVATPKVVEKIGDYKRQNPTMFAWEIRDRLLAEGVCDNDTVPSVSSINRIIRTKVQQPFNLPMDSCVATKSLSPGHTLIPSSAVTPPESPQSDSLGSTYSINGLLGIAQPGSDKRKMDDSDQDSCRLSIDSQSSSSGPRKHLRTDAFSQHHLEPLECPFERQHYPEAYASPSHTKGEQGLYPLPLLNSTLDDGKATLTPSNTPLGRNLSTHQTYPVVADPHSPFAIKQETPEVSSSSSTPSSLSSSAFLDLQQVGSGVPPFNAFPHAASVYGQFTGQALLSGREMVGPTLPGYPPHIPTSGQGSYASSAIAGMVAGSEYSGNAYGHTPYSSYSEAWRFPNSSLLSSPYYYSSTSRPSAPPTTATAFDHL

[13] = target: Heat shock protein HSP 90-alpha (Homo sapiens, UniProt P07900); type: functional, organism-based
H9c2 = assay: cells; type: functional, cell-based; settings: Rattus norvegicus, H9c2, Myocardium;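 note: confirmatory concentration-response retest of ultra-high-throughput screening hits for modulation of myocardial damage; cell death induced by hydrogen peroxide oxidative stress; compound pretreatment for 60 min then peroxide exposure for 2 h; potency is for protecting the cells against peroxide damage rather than for killing them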
[14] = NIH-3T3 fibroblast cytotoxicity, dose response, cytotoxicity control, cell-based, fluorescence, Alamar Blue, secondary assay (AID 2327); type: functional;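 note: NIH-3T3 mouse fibroblasts cultured with fluconazole at 8 µg/mL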
[15] = C. albicans growth with fluconazole, confirmation, fluorescence, retest (AID 2467); type: functional, cell-based
Coagulation factor XII = target: T2, Coagulation factor XII (Homo sapiens, UniProt P00748); type: functional;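 note: activated factor XIIa alpha cleaving a fluorogenic AMC peptide substrate; inhibitor potency from loss of enzyme activity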
T2 sequence (P00748 whole entry): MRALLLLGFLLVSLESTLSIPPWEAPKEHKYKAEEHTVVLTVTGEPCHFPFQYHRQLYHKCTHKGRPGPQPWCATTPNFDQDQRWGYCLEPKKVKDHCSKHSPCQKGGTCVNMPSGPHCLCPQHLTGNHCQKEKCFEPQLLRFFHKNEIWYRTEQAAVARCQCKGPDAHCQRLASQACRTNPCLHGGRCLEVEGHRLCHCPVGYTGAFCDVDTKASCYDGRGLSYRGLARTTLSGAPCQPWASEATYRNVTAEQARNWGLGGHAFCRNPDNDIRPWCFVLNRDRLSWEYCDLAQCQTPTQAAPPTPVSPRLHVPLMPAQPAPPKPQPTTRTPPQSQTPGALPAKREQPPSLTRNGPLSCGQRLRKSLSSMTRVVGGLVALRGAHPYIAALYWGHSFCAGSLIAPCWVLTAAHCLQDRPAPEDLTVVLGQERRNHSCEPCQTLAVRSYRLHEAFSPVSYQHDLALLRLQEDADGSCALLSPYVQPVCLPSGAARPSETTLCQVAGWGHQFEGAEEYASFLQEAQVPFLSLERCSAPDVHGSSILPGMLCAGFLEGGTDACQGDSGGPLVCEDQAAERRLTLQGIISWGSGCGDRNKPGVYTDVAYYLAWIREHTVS

[16] = target: Nuclear receptor subfamily 5 group A member 2 (Homo sapiens, UniProt O00482); type: functional, cell-based;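 note: HEK293T cells transfected with LRH-1 and a StAR promoter luciferase reporter; potency for inhibitors that lower LRH-1 driven reporter light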
Chain of Nuclear receptor subfamily 5 group A member 2 (O00482 whole entry): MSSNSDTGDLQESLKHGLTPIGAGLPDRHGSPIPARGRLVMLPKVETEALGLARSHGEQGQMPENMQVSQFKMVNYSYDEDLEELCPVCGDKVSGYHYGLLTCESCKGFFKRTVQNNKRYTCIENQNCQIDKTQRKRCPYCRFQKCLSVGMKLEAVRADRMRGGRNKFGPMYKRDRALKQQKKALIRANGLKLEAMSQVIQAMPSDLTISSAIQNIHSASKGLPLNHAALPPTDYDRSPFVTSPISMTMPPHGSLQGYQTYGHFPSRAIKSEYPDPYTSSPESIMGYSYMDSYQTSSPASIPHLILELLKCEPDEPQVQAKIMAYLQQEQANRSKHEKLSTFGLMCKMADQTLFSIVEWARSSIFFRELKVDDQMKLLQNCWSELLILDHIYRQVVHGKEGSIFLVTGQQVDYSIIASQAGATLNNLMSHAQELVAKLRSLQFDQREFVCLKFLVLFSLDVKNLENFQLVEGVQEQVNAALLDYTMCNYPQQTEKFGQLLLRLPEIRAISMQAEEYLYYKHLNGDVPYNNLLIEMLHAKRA

Steroidogenic factor 1 = Steroidogenic factor 1 (Homo sapiens, UniProt Q13285); assay: Counterscreen for inverse agonists of the liver receptor homolog-1 (LRH-1; NR5A2): Luminescence-based cell-based high throughput dose response assay to identify inverse agonists of the Steroidogenic Factor 1 Nuclear Receptor (SF1; NR5A1).; type: functional
Chain of Steroidogenic factor 1 (Q13285 whole entry): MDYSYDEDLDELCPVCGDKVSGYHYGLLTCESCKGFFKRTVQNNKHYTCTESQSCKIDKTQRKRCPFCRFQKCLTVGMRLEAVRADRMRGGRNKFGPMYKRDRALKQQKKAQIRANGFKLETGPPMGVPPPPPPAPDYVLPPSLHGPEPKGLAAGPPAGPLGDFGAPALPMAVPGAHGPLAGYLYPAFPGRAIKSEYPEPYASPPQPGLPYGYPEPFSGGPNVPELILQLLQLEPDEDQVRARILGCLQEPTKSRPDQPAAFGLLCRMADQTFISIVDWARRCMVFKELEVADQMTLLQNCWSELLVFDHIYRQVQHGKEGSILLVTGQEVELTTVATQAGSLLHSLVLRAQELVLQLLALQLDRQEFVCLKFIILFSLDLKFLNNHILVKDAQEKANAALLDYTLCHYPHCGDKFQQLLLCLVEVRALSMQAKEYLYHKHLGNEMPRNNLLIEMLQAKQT

[17] = StAR promoter reporter inhibition counter-screen, dose response, counter-screen for LRH-1 inverse agonist project, cell-based, luminescence, luciferase reporter (AID 651969); type: functional
[18] = inhibitors of intracellular T. cruzi replication, confirmation, NIH3T3 host cells, beta-gal luminescence (AID 2044); type: functional, cell-based;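 note: intracellular parasites grown in NIH/3T3 mouse fibroblasts as host cells; luminescent beta-galactosidase reporter signal from transgenic T. cruzi replicating inside host cells; inhibitors lower the luminescence signal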
[19] = cytotoxicity toward NIH3T3 fibroblasts, dose response, counter-screen, cell-based, ATP luminescence, mouse fibroblasts (AID 2010); type: functional;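 note: cells exposed to compound for about 90 hours before reading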
[20] = target: T3, Corticotropin-releasing factor receptor 2/Corticotropin-releasing factor-binding protein (Homo sapiens, UniProt P24387+Q13324); assay: activators of CRF receptor 2 with binding protein – uHTS hits, confirmation (AID 602473); type: functional; settings: read-out: EC50_Mean
T3 sequence (Q13324 whole entry): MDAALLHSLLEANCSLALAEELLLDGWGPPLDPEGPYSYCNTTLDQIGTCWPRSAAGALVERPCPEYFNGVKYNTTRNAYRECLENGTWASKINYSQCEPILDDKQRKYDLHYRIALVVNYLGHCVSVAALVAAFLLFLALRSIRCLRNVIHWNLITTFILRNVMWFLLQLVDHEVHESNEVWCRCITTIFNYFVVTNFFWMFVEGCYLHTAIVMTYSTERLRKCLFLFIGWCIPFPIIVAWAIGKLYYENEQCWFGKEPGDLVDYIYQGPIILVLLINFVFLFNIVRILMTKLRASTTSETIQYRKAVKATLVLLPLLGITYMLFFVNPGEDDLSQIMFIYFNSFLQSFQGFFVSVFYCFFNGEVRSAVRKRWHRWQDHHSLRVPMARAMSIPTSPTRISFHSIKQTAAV
T3 sequence (P24387 whole entry): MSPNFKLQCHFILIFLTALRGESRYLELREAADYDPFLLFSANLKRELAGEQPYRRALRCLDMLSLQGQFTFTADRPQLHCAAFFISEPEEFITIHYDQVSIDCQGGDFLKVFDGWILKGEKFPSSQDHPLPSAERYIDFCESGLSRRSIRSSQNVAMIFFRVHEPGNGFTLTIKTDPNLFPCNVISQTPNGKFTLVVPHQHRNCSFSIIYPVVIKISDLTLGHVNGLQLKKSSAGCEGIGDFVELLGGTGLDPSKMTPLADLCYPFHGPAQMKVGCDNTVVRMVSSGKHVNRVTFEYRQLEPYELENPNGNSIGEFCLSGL

[21] = THP-1 cell cytotoxicity, dose response, cytotoxicity control for non-replicating M. tuberculosis project (AID 489025); type: functional
[22] = HepG2 cell cytotoxicity, dose response, cytotoxicity control for non-replicating M. tuberculosis project (AID 489018); type: functional; settings: Mycobacterium tuberculosis

COc1cc(/C=C(/C#N)c2nc3ccccc3[nH]2)ccc1OCC(=O)Nc1ccccc1C(C)C
EC50 [1]: 1.4 µM (active) | EC50 (BJ [2]): 2.97 µM (active) | EC50 [3]: 3.34 µM (active) | EC50 [4]: 0.56 µM (active) | EC50 (BJ [5]): 3.15 µM (active) | EC50 [6]: 19.6 µM (active) | EC50 [7]: 3.91 µM (active) | EC50 (BJ [8]): 5.76 µM (inconclusive) | EC50 [9]: 2.81 µM (active)

O=C(NN1C(=O)c2ccccc2NC1c1ccoc1)c1ccccc1 (stereo unspecified)
IC50 (Aminopeptidase N): 46.5 µM (active)

CCN(CC(=O)NC(C)(C)C)C(=O)CCl
CC50 (Vero): 22.2 µM (active)

NS(=O)(=O)c1ccc(CCNCc2cc(Cl)ccc2OCc2ccccc2)cc1
AC50 [10]: 4.46 µM (active) | AC50 [11]: 46.9 µM (active) | AC50 [12]: 7.31 µM (active)

CCCCCCN1C[C@@H](n2cc(-c3ccc(F)cc3)nn2)[C@H](O)C[C@@H]1c1ccc(Cl)cc1
AC50 [10]: 12.5 µM (active) | AC50 [11]: 41.6 µM (active) | AC50 [12]: 21.5 µM (active) | AC50 (Paired box protein Pax-8): 9.71 µM (active)

Cc1ccccc1S(=O)(=O)Nc1ncnc2scc(-c3ccccc3)c12
IC50 (Aminopeptidase N): 24.3 µM (active)

O=C(Nc1nc(-c2ccccn2)cs1)c1ccc(-c2ccccc2F)o1
AC50 [13]: 6.54 µM (active) | IC50 (H9c2): > 79 µM (inactive)

CCOC(=O)CC1C(=O)NCCN1c1nc2ccc(C)cn2c(=O)c1/C=C1\SC(=S)N(CC(C)C)C1=O (stereo unspecified)
IC50 (Aminopeptidase N): 35.7 µM (active)

CCOc1ccc(-c2c(C)[n+](-c3ccc(OCC)cc3)c3n2CCCCC3)cc1.[O-][Cl+3]([O-])([O-])[O-]
EC50 [14]: 39.3 µM (active) | EC50 (BJ [2]): 9.44 µM (inconclusive) | EC50 (BJ [5]): 8.54 µM (active) | EC50 [15]: 2.36 µM (active) | EC50 (BJ [8]): 17.1 µM (active) | EC50 [9]: 13.5 µM (inconclusive) | IC50 (Coagulation factor XII): > 50 µM (inactive)

Cc1cc(C)c2c(O)nc(SCC(=O)Nc3ccc(Br)cc3)nc2n1
IC50 [16]: 28.2 µM (inactive) | IC50 (Steroidogenic factor 1): 33.4 µM (inactive) | IC50 [17]: 35.9 µM (inactive)

C=CCn1c(CNC(=O)c2ccccc2F)nnc1SCC(=O)NC(C)c1ccccc1 (stereo unspecified)
IC50 (Aminopeptidase N): 103 µM (active)

Nc1nnc(SCC(=O)Nc2ccccc2-c2ccccc2)[nH]1
IC50 (Aminopeptidase N): 51.2 µM (active)

Cc1cc(C)c2nc(NC(=O)c3ccc([N+](=O)[O-])o3)sc2c1
IC50 [16]: 35.9 µM (inactive) | IC50 (Steroidogenic factor 1): 0.148 µM (active) | IC50 [17]: 35.9 µM (inactive)

Cc1cc(OCC(=O)N2CCC(O)CC2)c2c(C)cc(=O)oc2c1
IC50 [16]: 19 µM (inactive) | IC50 (Steroidogenic factor 1): 11.2 µM (inactive) | IC50 [17]: 35.9 µM (inactive)

CCC(C)(C)n1nnnc1C(c1cccnc1)N1CCC(Cc2ccccc2)CC1 (stereo unspecified)
EC50 [18]: 0.151 µM (active) | EC50 [19]: 49 µM (active) | AC50 [13]: 1.09 µM (active)

O=C(NCc1ccco1)c1nn(-c2ccccc2)c(=O)c2ccccc12
IC50 [16]: 35.9 µM (inactive) | IC50 (Steroidogenic factor 1): 3.09 µM (active) | IC50 [17]: 12 µM (inactive)

CC(C)OC(=O)c1ccc(NCc2cc(O)ccc2O)cc1
AC50 [13]: 25 µM (active) | AC50 [10]: 1.9 µM (active) | AC50 [11]: 7.81 µM (active) | AC50 [12]: 5.28 µM (active)

Cc1cccc(N2CCN(S(=O)(=O)c3c(C)noc3/C=C/N(C)C)CC2)c1C
AC50 [13]: 4.74 µM (active)

COCCOC(=O)/C(=C/c1ccc(OC(=O)c2ccccc2)cc1)C(C)=O
AC50 [13]: 3.02 µM (active) | EC50 [20]: > 53 µM (inactive)

COc1ccc2cc(C(=O)NCc3ccccc3CN3CCCC3)ccc2c1
CC50 [21]: > 40 µM (active) | CC50 [22]: > 20 µM (active)

CN(C)C=O.NS(=O)(=O)c1cccc(NC(=O)CSc2nc(O)c3c(C(F)(F)F)cc(-c4cccs4)nc3n2)c1
IC50 (Aminopeptidase N): 30.5 µM (active)
